Measured values: patent US5840929A, “C4 methoxy ether derivatives of paclitaxel” (Bristol-Myers Squibb Company, priority 1996, dated 1998)

Tested on: HCT-116 human colon carcinoma cells
Test: In vitro cytotoxicity, XTT assay in HCT-116 human colon carcinoma cells (72 h)
Type: cell-based
Details: for Ratio of IC50 of Compound I over Paclitaxel: HCT-116, ratio to paclitaxel IC50; for IC50: Homo sapiens, HCT-116, XTT, 72 hours, 4000 cells/well, read-out: IC50 HCT-116 (drug concentration required to inhibit cell proliferation to 50% of untreated control cells)
Description: Cytotoxicity was assessed in HCT-116 human colon carcinoma cells by XTT (2,3-bis(2-methoxy-4-nitro-5-sulfphenyl)-5-[(phenylamino)carbonyl]2H-tetrazolium hydroxide) assay as reported in D. A. Scudiero, et al., "Evaluation of soluble tetrazolium/formazan assay for cell growth and drug sensitivity in culture using human and other tumor cell lines," Cancer Res. 48:4827-4833, 1988. Cells were plated at 4000 cells/well in 96 well microtiter plates and 24 hours later drugs were added and serial diluted. The cells were incubated at 37° C. for 72 hours at which time the tetrazolium dye, XTT, was added. A dehydrogenase enzyme in live cells reduces the XTT to a form that absorbs light at 450 nm which can be quantitated spectrophotometrically. The greater the absorbance, the greater the number of live cells. The results are expressed in Table I as an IC50, which is the drug concentration required to inhibit cell proliferation (i.e., absorbance at 450 nm) to 50% of that of untreated control cells.

| Structure (SMILES) | Ratio of IC50 of Compound I over Paclitaxel | IC50 [nM] |
| --- | --- | --- |
| CO[C@@]12CO[C@@H]1C[C@H](O)[C@@]1(C)C(=O)[C@H](OC(C)=O)C3=C(C)[C@@H](OC(=O)[C@H](O)[C@@H](NC(=O)c4ccccc4)c4ccccc4)C[C@@](O)([C@@H](OC(=O)c4ccccc4)[C@H]21)C3(C)C [Compound Ia, 4-deacetyloxy-4-methoxypaclitaxel] | 21.7 | 34.7 |
| CO[C@@]12CO[C@@H]1C[C@H](O)[C@@]1(C)C(=O)[C@H](OC(C)=O)C3=C(C)[C@@H](OC(=O)[C@H](O)[C@@H](NC(=O)OC(C)(C)C)c4ccco4)C[C@@](O)([C@@H](OC(=O)c4ccccc4)[C@H]21)C3(C)C [Compound Ib, 4-deacetyloxy-4-methoxy-3'-desphenyl-3'-(2-furyl)-3'-N-debenzoyl-3'-N-butoxycarbonyl(paclitaxel)] | 1.61 | 3.7 |
| CO[C@@]12CO[C@@H]1C[C@H](O)[C@@]1(C)C(=O)[C@H](OC(C)=O)C3=C(C)[C@@H](OC(=O)[C@H](O)[C@@H](NC(=O)OC(C)(C)C)c4ccccc4)C[C@@](O)([C@@H](OC(=O)c4ccccc4)[C@H]21)C3(C)C [Compound Ic, 4-deacetyloxy-4-methoxy-3'-N-debenzoyl-3'-N-butoxycarbonyl(paclitaxel)] | 1.69 | 2.2 |
| CC(=O)O[C@H]1C(=O)[C@@]2(C)[C@H]([C@H](OC(=O)c3ccccc3)[C@]3(O)C[C@H](OC(=O)[C@H](O)[C@@H](NC(=O)c4ccccc4)c4ccccc4)C(C)=C1C3(C)C)[C@]1(OC(C)=O)CO[C@@H]1C[C@@H]2O [Paclitaxel, paclitaxel] | – | 1.3 to 2.3 |
